Test results published in patent publication US8633245B2, “PAI-1 inhibitor” (Institute of Medicinal Molecular Design, Inc., priority 2008, dated 2014).
pIC50: −log10 of the molar value.

Columns and labels:
Format in all cases: biochemical
[1] = target: T1, recombinant human PAI-1 (Homo sapiens, UniProt P05121); test: Test Example 1: human PAI-1 inhibitory activity (tPA fluorogenic substrate, pH 7.5 Tris buffer); details: for Inhibition Rate of PAI-1 Activity (%): Tris buffer; for inhibition at 25 µM: read-out: Inhibition Rate of PAI-1 Activity (%)
T1 construct: purchased Molecular Innovations, Inc
T1 sequence (P05121 24-402): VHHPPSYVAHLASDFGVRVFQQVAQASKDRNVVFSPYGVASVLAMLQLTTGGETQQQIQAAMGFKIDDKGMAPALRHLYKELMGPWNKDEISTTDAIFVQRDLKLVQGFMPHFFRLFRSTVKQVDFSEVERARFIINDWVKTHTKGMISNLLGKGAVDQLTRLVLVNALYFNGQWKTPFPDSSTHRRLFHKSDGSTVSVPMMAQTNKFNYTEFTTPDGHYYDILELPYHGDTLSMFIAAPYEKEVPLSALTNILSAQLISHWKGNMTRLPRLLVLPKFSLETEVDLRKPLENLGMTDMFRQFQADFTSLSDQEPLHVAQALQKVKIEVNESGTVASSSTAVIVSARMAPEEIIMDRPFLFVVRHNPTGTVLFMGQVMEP
Description: 50 mM Tris, 150 mM NaCl, 10 μg/ml BSA, 0.01% Tween80 (SIGMA-ALDRICH Corporation)

[2] = target: T1, recombinant human PAI-1; test: Test Example 2: human PAI-1 inhibitory activity (tPA fluorogenic substrate, pH 7.4 HEPES buffer); details: for Inhibition Rate of PAI-1 Activity (%): HEPES buffer; for pIC50: human PAI-1, calculated from the inhibition rates
Description: 0.1 M HEPES, 0.1 M NaCl. 1 mM EDTA. 0.1% Polyethylene glycol 8,000 (Hampton Research Corporation),
2 mM Dimethyldecylphoshine oxide [Apo-10] (Fluka Corporation)

[3] = target: T2, recombinant rat PAI-1 (Rattus norvegicus, UniProt P20961); test: Test Example 3: rat PAI-1 inhibitory activity (as Test Example 2 with rat PAI-1); details: for Inhibition Rate of PAI-1 Activity (%) / pIC50: rat PAI-1; for pIC50: calculated from the inhibition rates; for inhibition at 10 µM: read-out: Inhibition Rate of PAI-1 Activity (%)
T2 construct: purchased Molecular Innovations, Inc
T2 sequence (P20961 24-402): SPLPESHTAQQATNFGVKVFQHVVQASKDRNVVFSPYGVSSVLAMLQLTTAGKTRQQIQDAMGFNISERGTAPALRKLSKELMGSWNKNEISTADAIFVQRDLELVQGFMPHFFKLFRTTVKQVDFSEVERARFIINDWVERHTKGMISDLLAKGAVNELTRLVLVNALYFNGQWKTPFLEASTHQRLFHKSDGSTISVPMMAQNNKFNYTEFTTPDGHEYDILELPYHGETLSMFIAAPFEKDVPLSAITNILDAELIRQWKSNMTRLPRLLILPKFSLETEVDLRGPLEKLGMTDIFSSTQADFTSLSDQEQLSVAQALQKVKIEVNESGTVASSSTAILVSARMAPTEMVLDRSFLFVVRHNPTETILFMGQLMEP
Description: To this solution, 6 μl of 80 nM recombinant human PAI-1 (Molecular Innovations, Inc.) solution prepared with Tris buffer was added, and the plate was incubated for 5 minutes at room temperature. Furthermore, 30 μl of 800 IU/ml two-chain tPA (Activity Standard; American diagnostica, inc.) prepared with Tris buffer was added, and the mixed solution was incubated for 15 minutes at room temperature. Then, 30 μl of 400 μM fluorogenic substrate (Pyr-Gly-Arg-MCA; Peptide Institute, Inc.) for tPA prepared with Tris buffer was added and reacted for 30 minutes at room temperature.

CC(C)(C)c1ccc(CN(C(=O)C(=O)O)c2ccc(OCc3ccccc3)c(-c3ccc(OC(F)(F)F)cc3)c2)cc1 [Compound 212]
Inhibition Rate of PAI-1 Activity (%) ([1]; Compound Concentration 5 μM): 78%
Inhibition Rate of PAI-1 Activity (%) ([1]; Compound Concentration 10 μM): 95%
Inhibition Rate of PAI-1 Activity (%) ([2]; Compound Concentration 0.1 μM): 5%
Inhibition Rate of PAI-1 Activity (%) ([2]; Compound Concentration 0.3 μM): 15%
Inhibition Rate of PAI-1 Activity (%) ([2]; Compound Concentration 1 μM): 64%
Inhibition Rate of PAI-1 Activity (%) ([2]; Compound Concentration 3 μM): 98%
Inhibition Rate of PAI-1 Activity (%) ([3]; compound concentration 0.3 μM): 8%
Inhibition Rate of PAI-1 Activity (%) ([3]; compound concentration 1 μM): 40%
Inhibition Rate of PAI-1 Activity (%) ([3]; compound concentration 3 μM): 73%
Inhibition Rate of PAI-1 Activity (%) ([3]; compound concentration 10 μM): 67%

CC(C)Oc1ccc(N(Cc2ccc(C(C)(C)C)cc2)C(=O)C(=O)O)cc1-c1ccc(OC(F)(F)F)cc1 [Compound 211]
Inhibition Rate of PAI-1 Activity (%) ([1]; Compound Concentration 5 μM): 87%
Inhibition Rate of PAI-1 Activity (%) ([1]; Compound Concentration 10 μM): 96%
Inhibition Rate of PAI-1 Activity (%) ([2]; Compound Concentration 0.1 μM): 9%
Inhibition Rate of PAI-1 Activity (%) ([2]; Compound Concentration 0.3 μM): 16%
Inhibition Rate of PAI-1 Activity (%) ([2]; Compound Concentration 1 μM): 43%
Inhibition Rate of PAI-1 Activity (%) ([2]; Compound Concentration 3 μM): 96%
Inhibition Rate of PAI-1 Activity (%) ([3]; compound concentration 0.3 μM): 4%
Inhibition Rate of PAI-1 Activity (%) ([3]; compound concentration 1 μM): 17%
Inhibition Rate of PAI-1 Activity (%) ([3]; compound concentration 3 μM): 78%
Inhibition Rate of PAI-1 Activity (%) ([3]; compound concentration 10 μM): 87%

CCN(CC)c1ccc(N(Cc2ccc(C(C)(C)C)cc2)C(=O)C(=O)O)cc1-c1ccc(OC(F)(F)F)cc1 [Compound 213]
Inhibition Rate of PAI-1 Activity (%) ([1]; Compound Concentration 5 μM): 93%
Inhibition Rate of PAI-1 Activity (%) ([1]; Compound Concentration 10 μM): 84%
Inhibition Rate of PAI-1 Activity (%) ([2]; Compound Concentration 0.1 μM): 0%
Inhibition Rate of PAI-1 Activity (%) ([2]; Compound Concentration 0.3 μM): 10%
Inhibition Rate of PAI-1 Activity (%) ([2]; Compound Concentration 1 μM): 48%
Inhibition Rate of PAI-1 Activity (%) ([2]; Compound Concentration 3 μM): 98%
Inhibition Rate of PAI-1 Activity (%) ([3]; compound concentration 0.3 μM): 8%
Inhibition Rate of PAI-1 Activity (%) ([3]; compound concentration 1 μM): 26%
Inhibition Rate of PAI-1 Activity (%) ([3]; compound concentration 3 μM): 90%
Inhibition Rate of PAI-1 Activity (%) ([3]; compound concentration 10 μM): 78%

CCCCCOc1ccc(-c2ccc(OC(F)(F)F)cc2)cc1N(CCCCc1ccccc1)C(=O)C(=O)O [Compound 226]
pIC50 [2]: 6.29
pIC50 [3]: 6.00
inhibition at 10 µM [3]: > 99%

CC(C)(C)c1ccc(COc2ccc(Oc3ccc(OC(F)(F)F)cc3)cc2CCC(=O)O)cc1 [Compound 96]
pIC50 [2]: 5.88
pIC50 [3]: 5.54

CC(C)(Oc1cc(-c2ccc(OC(F)(F)F)cc2)ccc1OCc1ccc(C(C)(C)C)cc1)C(=O)O [Compound 106]
pIC50 [2]: 5.94
pIC50 [3]: 5.77
inhibition at 10 µM [3]: > 99%

CC(C)(C)c1ccc(COc2cc(-c3ccc(OC(F)(F)F)cc3)ccc2CCC(=O)O)cc1 [Compound 76]
pIC50 [2]: 5.94
pIC50 [3]: 5.54

CCCCOc1ccc(-c2ccc(OC(F)(F)F)cc2)cc1N(CCCCc1ccccc1)C(=O)C(=O)O [Compound 231]
pIC50 [2]: 5.92
pIC50 [3]: 5.80
inhibition at 10 µM [3]: > 99%

O=C(O)CCc1c(Oc2ccc(OC(F)(F)F)cc2)cccc1Oc1ccc(OC(F)(F)F)cc1 [Compound 98]
pIC50 [2]: 5.81
pIC50 [3]: 5.45

CCCCc1ccc(COc2ccc(-c3ccc(OC(F)(F)F)cc3)cc2CCC(=O)O)cc1 [Compound 30]
Inhibition Rate of PAI-1 Activity (%) ([1]; Compound Concentration 5 μM): 29%
Inhibition Rate of PAI-1 Activity (%) ([1]; Compound Concentration 10 μM): 70%
Inhibition Rate of PAI-1 Activity (%) ([1]; Compound Concentration 25 μM): >99%
Inhibition Rate of PAI-1 Activity (%) ([2]; Compound Concentration 0.1 μM): 0%
Inhibition Rate of PAI-1 Activity (%) ([2]; Compound Concentration 0.3 μM): 5%
Inhibition Rate of PAI-1 Activity (%) ([2]; Compound Concentration 1 μM): 25%
Inhibition Rate of PAI-1 Activity (%) ([2]; Compound Concentration 3 μM): 92%
Inhibition Rate of PAI-1 Activity (%) ([3]; compound concentration 0.3 μM): 0%
Inhibition Rate of PAI-1 Activity (%) ([3]; compound concentration 1 μM): 5%
Inhibition Rate of PAI-1 Activity (%) ([3]; compound concentration 3 μM): 47%
Inhibition Rate of PAI-1 Activity (%) ([3]; compound concentration 10 μM): 89%

CC(C)(Oc1cc(-c2ccc(OC(F)(F)F)cc2)ccc1OCCCCc1ccccc1)C(=O)O [Compound 116]
pIC50 [2]: 5.78
pIC50 [3]: 5.49

CCCCC(c1ccc(C(C)(C)C)cc1)N(C(=O)C(=O)O)c1ccc(-c2ccc(OC(F)(F)F)cc2)cc1 (stereo not shown) [Compound 221]
pIC50 [2]: 6.03
inhibition at 3 µM ([2]; read-out: Inhibition Rate of PAI-1 Activity (%)): > 99%
pIC50 [3]: 5.90

CC(C)c1ccc(Oc2ccc(CCC(=O)O)c(Oc3ccc(C(C)C)cc3)c2)cc1 [Compound 73]
inhibition at 25 µM [1]: > 99%
pIC50 [2]: 5.90
pIC50 [3]: 5.68

CCCCOc1ccc(N(CCCCc2ccccc2)C(=O)C(=O)O)cc1-c1ccc(OC(F)(F)F)cc1 [Compound 227]
pIC50 [2]: 5.95
pIC50 [3]: 5.71

CN(C)c1ccc(N(Cc2ccc(C(C)(C)C)cc2)C(=O)C(=O)O)cc1-c1ccc(OC(F)(F)F)cc1 [Compound 214]
Inhibition Rate of PAI-1 Activity (%) ([1]; Compound Concentration 5 μM): 87%
Inhibition Rate of PAI-1 Activity (%) ([1]; Compound Concentration 10 μM): 93%
Inhibition Rate of PAI-1 Activity (%) ([2]; Compound Concentration 0.1 μM): 4%
Inhibition Rate of PAI-1 Activity (%) ([2]; Compound Concentration 0.3 μM): 2%
Inhibition Rate of PAI-1 Activity (%) ([2]; Compound Concentration 1 μM): 40%
Inhibition Rate of PAI-1 Activity (%) ([2]; Compound Concentration 3 μM): 96%
Inhibition Rate of PAI-1 Activity (%) ([3]; compound concentration 0.3 μM): 0%
Inhibition Rate of PAI-1 Activity (%) ([3]; compound concentration 1 μM): 8%
Inhibition Rate of PAI-1 Activity (%) ([3]; compound concentration 3 μM): 77%
Inhibition Rate of PAI-1 Activity (%) ([3]; compound concentration 10 μM): 97%

CCN(CC)c1ccc(N(CCCc2ccccc2)C(=O)C(=O)O)c(-c2ccc(OC(F)(F)F)cc2)c1 [Compound 238]
pIC50 [2]: 5.80
pIC50 [3]: 5.50

CC(C)(C)c1ccc(Oc2cc(Oc3ccc(OC(F)(F)F)cc3)ccc2CCC(=O)O)cc1 [Compound 90]
pIC50 [2]: 5.87
pIC50 [3]: 5.58

CC(C)(C)c1ccc(Oc2ccc(Oc3ccc(OC(F)(F)F)cc3)cc2CCC(=O)O)cc1 [Compound 100]
pIC50 [2]: 5.87
pIC50 [3]: 5.64

CC(C)(C)c1ccc(COc2ccc(-c3ccc(OC(F)(F)F)cc3)cc2OCC(=O)O)cc1 [Compound 105]
inhibition at 25 µM [1]: > 99%
pIC50 [2]: 5.97
pIC50 [3]: 5.66

CC(C)(C)c1ccc(Oc2cc(-c3ccc(OC(F)(F)F)cc3)ccc2OCC(=O)O)cc1 [Compound 112]
pIC50 [2]: 6.10
pIC50 [3]: 5.70

CC(C)(C)c1ccc(Oc2cccc(-c3ccc(OC(F)(F)F)cc3)c2CCC(=O)O)cc1 [Compound 94]
pIC50 [2]: 5.87
pIC50 [3]: 5.50

Cc1cc(N(C)C)c(-c2ccc(OC(F)(F)F)cc2)cc1N(Cc1ccc(C(C)(C)C)cc1)C(=O)C(=O)O [Compound 215]
Inhibition Rate of PAI-1 Activity (%) ([1]; Compound Concentration 5 μM): 90%
Inhibition Rate of PAI-1 Activity (%) ([1]; Compound Concentration 10 μM): 92%
Inhibition Rate of PAI-1 Activity (%) ([2]; Compound Concentration 0.1 μM): 7%
Inhibition Rate of PAI-1 Activity (%) ([2]; Compound Concentration 0.3 μM): 18%
Inhibition Rate of PAI-1 Activity (%) ([2]; Compound Concentration 1 μM): 54%
Inhibition Rate of PAI-1 Activity (%) ([2]; Compound Concentration 3 μM): 95%
Inhibition Rate of PAI-1 Activity (%) ([3]; compound concentration 0.3 μM): 2%
Inhibition Rate of PAI-1 Activity (%) ([3]; compound concentration 1 μM): 16%
Inhibition Rate of PAI-1 Activity (%) ([3]; compound concentration 3 μM): 84%
Inhibition Rate of PAI-1 Activity (%) ([3]; compound concentration 10 μM): 97%

CC(C)(C)c1ccc(COc2c(CCC(=O)O)cccc2-c2ccc(OC(F)(F)F)cc2)cc1 [Compound 88]
pIC50 [2]: 5.88
pIC50 [3]: 5.49

CC(C)(C)c1ccc(COc2cc(Oc3ccc(OC(F)(F)F)cc3)ccc2CCC(=O)O)cc1 [Compound 78]
pIC50 [2]: 5.86
pIC50 [3]: 5.63
